The values that follow come from publication PMC4615133, “Click chemistry armed enzyme-linked immunosorbent assay to measure palmitoylation by hedgehog acyltransferase” (Analytical Biochemistry, 2015).

The term Km denotes the substrate concentration at which the rate is half of its maximum.

The target in the assay is T1, hedgehog acyltransferase (Hhat) (Homo sapiens, UniProt Q5VTY9).
T1 construct: Hhat-3C-FLAG-His8 (cDNA base pairs 4 to 1479), DDM-solubilized P100 membrane fraction from HEK293a cells
T1 sequence (Q5VTY9 2-493): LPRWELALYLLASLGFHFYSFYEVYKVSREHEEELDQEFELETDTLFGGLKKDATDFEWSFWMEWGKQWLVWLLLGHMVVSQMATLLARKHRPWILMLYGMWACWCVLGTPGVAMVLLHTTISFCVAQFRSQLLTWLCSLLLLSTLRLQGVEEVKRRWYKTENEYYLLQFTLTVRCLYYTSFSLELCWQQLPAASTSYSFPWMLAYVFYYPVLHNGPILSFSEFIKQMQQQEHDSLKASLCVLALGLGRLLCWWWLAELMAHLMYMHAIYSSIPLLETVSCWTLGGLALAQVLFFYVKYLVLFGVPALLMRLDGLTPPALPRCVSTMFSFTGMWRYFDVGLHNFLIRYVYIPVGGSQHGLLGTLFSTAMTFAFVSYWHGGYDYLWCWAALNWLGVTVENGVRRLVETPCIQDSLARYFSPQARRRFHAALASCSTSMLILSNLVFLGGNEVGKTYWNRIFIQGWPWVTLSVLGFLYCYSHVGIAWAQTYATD
Kind of assay: stopped click-ELISA kinetics, apparent Km at […] Shh([…]). In kind it is cell-based.

Molecules are shown by their SMILES.

`C#CCCCCCCCCCCCCC(=O)SCCNC(=O)CCNC(=O)[C@H](O)C(C)(C)COP(=O)(O)OP(=O)(O)OC[C@H]1O[C@@H](n2cnc3c(N)ncnc32)[C@H](O)[C@@H]1OP(=O)(O)O` [YnC15-CoA]: the Km is 0.15 ± 0.05 µM.
